Measured values published in ChEMBL document CHEMBL4219130, “Two new lathyrane-type diterpenoid glycosides with IL-6 production inhibitory activity from the roots of Euphorbia kansui” (Bioorg Med Chem Lett, 2018).
Active and inactive are the calls of the source. The calls are words filed in the database; no cut-off is given here.

Assays:
Format in all cases: functional, cell-based
[1] = test system: HMC1; test: Antiinflammatory activity in human HMC1 cells assessed as reduction in PMA/ionophore A23187-induced IL-6 mRNA expression at 0.8 to 20 uM pretreated for 30 mins followed by PMA/ionophore challenge measured after 24 hrs by real-time PCR analysis
[2] = test system: HMC1; test: Antiinflammatory activity in human HMC1 cells assessed as reduction in PMA/ionophore A23187-induced IL-1beta mRNA expression at 0.8 to 20 uM pretreated for 30 mins followed by PMA/ionophore challenge measured after 24 hrs by real-time PCR analysis
[3] = test system: HMC1; test: Antiinflammatory activity in human HMC1 cells assessed as reduction in PMA/ionophore A23187-induced IL-6 production
[4] = test system: HMC1; test: Antiinflammatory activity in human HMC1 cells assessed as reduction in PMA/ionophore A23187-induced TNFalpha mRNA expression at 0.8 to 20 uM pretreated for 30 mins followed by PMA/ionophore challenge measured after 24 hrs by real-time PCR analysis

C/C1=C\C2=C(C[C@H](C)C2=O)[C@@H](O[C@@H]2O[C@H](CO)[C@@H](O)[C@H](O)[C@H]2O)[C@H](C)C[C@@H]2[C@H](C[C@H]1O)[C@@]2(C)CO
Activity [1]: Active | Activity [2]: Active | IC50 [3]: 2.96 µM | Activity [4]: Active

C/C1=C\C2=C(C[C@H](C)C2=O)[C@@H](O)[C@H](C)C[C@@H]2[C@H](C[C@H]1O)[C@@]2(C)CO[C@@H]1O[C@H](CO)[C@@H](O)[C@H](O)[C@H]1O
IC50 [3]: 1.94 µM
